Values joined by “and” are separate entries in the source; they are usually repeats but may differ in a detail not shown here. Equal values may be shown once. Active and inactive are the calls of the source. The calls are words filed in the database; no cut-off is given here.

The species named for experiment [1] is Rattus norvegicus. Nature of the experiment: Efficiency of iron clearance was determined. The format is functional. Also on record: concentration or dose not given beside the values.
Experiment [2] relates to Rattus norvegicus. Nature of the experiment: Tested for Iron clearance of compound, when administered subcutaneously at a dose 150 umol/kg in bile duct cannulated rat. The format is functional. The note with it: in the assay text read “orally” for “subcutaneously”.
The species named for experiment [3] is Rattus norvegicus. As to the kind of experiment: Tested for formation constant of the compound. Format: functional.
Experiment [4] relates to Rattus norvegicus. Nature of the experiment: Tested for Iron clearance of compound, when administered orally at a dose 150 umol/kg in bile duct cannulated rat; Inactive.

In turn, `O=C(O)[C@H]1CSC(c2ncccc2O)=N1` had an Efficiency in the experiment listed under Rattus norvegicus [1] of 2.4%. The Iron clearence with Rattus norvegicus [2] came to 101 µg/kg. The Kf in the experiment filed under Rattus norvegicus [3] was determined as 4e+29 M⁻¹.
With `CC(=O)N(O)CCCCCNC(=O)CCC(=O)N(O)CCCCCNC(=O)CCC(=O)N(O)CCCCCN` [DEFEROXAMINE], the Efficiency in the experiment listed under Rattus norvegicus [1] is 2.8% and 1%.
For `CN(O)C(=O)[C@H]1CSC(c2ncccc2O)=N1`, in the experiment filed under Rattus norvegicus [1], the Efficiency is 3.1%.
In the experiment filed under Rattus norvegicus [1], `O=C(O)[C@@H]1CSC(c2ncccc2O)=N1` yielded an Efficiency of 3.9%. Further, the Iron clearence with Rattus norvegicus [2] is 166 µg/kg.
Take `O=C(O)C1CCSC(c2ncccc2O)=N1` (stereo not drawn): the Iron clearence result in the experiment on Rattus norvegicus [4] was “inactive”.

The record behind these values is ChEMBL document CHEMBL1127842, “The desferrithiocin pharmacophore” (1994).
